Experiment in all cases: method of reducing viral plates (plaque reduction)
The test system of one assay is 1C3-syn-14-1. The format is cell-based, HSV-1. The following applies: for IC50: Human alphaherpesvirus 1, strain 1C3 syn 14-1, read-out: IC50; for IC50 / Relative resistance (RR): Table VIII; for Relative resistance (RR): IC50 of clone 1C3 syn 14-1 / IC50 of HSV-1 (F); for susceptibility of variant to drug (in words): variant 1C3-syn-14-1. The procedure:
(§1) According to the present invention, a method of reducing the viral plates comprises the following process: Vero cells monolayers developed in 24 wells microplates are infected with 50 UFP/well of virus in the absence or presence of different compounds concentrations. Each dilution is tested by duplicate. After 1 hour adsorption at 37° C., the inoculum is removed and covered by plating medium (culture media with methylcellulose at a final concentration of 0.7%). Inoculation is continued till the viral plates' appearance, which are then counted after fitting and dying the cells with violet crystal. Moreover, according to the present invention, 50% inhibitory concentration (IC50) means the compound concentration required for reducing about 50% the number of viral plates.
(§2) Compounds were present during the viral adsorption (1h, 37° C.) and after the infection. When a cytopathic action (ACP) between 80-90%, during a period among 24 to 72 hours p.i., was observed, cells were lysed with freeze-thawing cycles. In order to remove cellular moieties, the cellular lisate was centrifuged during 10 min at 1000 rpm, keeping the supernatant at −70° C. The supernatant was used to infect a new monolayer in the presence of SAMMA or PRO2000. […] The title and the IC50 of each viral passage was determined by viral plates reduction test (or after 2-3 passages) against SAMMA or PRO20000.

In the next assay the test system is HSV-1 TK^− B2006. The format is cell-based. The following applies: for IC50: Human alphaherpesvirus 1; for Relative resistance (RR): IC50 of HSV-1 TK^− B2006 / IC50 of HSV-1 (F). Here is the method:
as §1
(§3) Thus, preliminary tests of the cloned variants of passages with greater selection pressure of 1C3 (17, 20 and 21) with pyrimidine and purine analogous as aciclovir (ACV) and brivudin (BVDU) would disclose alterations at viral TK level as it is shown in Table VIII, a characteristic that, up to date, has not been published in previous art documents. The TK gene is not essential for the in vitro viral replication, though in vivo, is involved in the virulence, pathogenicity and reactivation since latency (Andrei G et al., 2005). […] Therefore, the selection pressure to which the viruses were subjected could have selected mutations in the TK gene and in additional superimposing genes generating strains with less in vivo pathogenic action (Jacobson J et al., 1993).

A further assay relates to HSV-1 (F). The format is cell-based. The following applies: Human alphaherpesvirus 1; Table VIII; strain HSV-1 (F); read-out: IC50. Here is the method:
as §1, §2

The subject of a further assay is 1C3 syn 21-1. Type of assay: cell-based, HSV-1. Particulars: for IC50: Human alphaherpesvirus 1, strain 1C3 syn 21-1, read-out: IC50; for Relative resistance (RR): IC50 of clone 1C3 syn 21-1 / IC50 of HSV-1 (F). The procedure:
as §1, §3

The next assay concerns 1C3 syn 20-1. The format is cell-based, HSV-1. The following applies: for IC50: Human alphaherpesvirus 1, strain 1C3 syn 20-1, read-out: IC50; for Relative resistance (RR): IC50 of clone 1C3 syn 20-1 / IC50 of HSV-1 (F). The procedure:
as §1, §3

For the next assay, the system named is 1C3 syn 20-3. Type of assay: cell-based, HSV-1. Particulars: for IC50: Human alphaherpesvirus 1, strain 1C3 syn 20-3, read-out: IC50; for Relative resistance (RR): IC50 of clone 1C3 syn 20-3 / IC50 of HSV-1 (F). Here is the method:
as §1, §3

The next assay deals with 1C3 syn 17-3. Type of assay: cell-based, HSV-1. Particulars: for IC50: Human alphaherpesvirus 1, strain 1C3 syn 17-3, read-out: IC50; for Relative resistance (RR): IC50 of clone 1C3 syn 17-3 / IC50 of HSV-1 (F). The procedure:
as §1, §3

Another assay concerns 1C3 syn 17-2. The format is cell-based, HSV-1. Particulars: for IC50: Human alphaherpesvirus 1, strain 1C3 syn 17-2, read-out: IC50; for Relative resistance (RR): IC50 of clone 1C3 syn 17-2 / IC50 of HSV-1 (F). Here is the method:
as §1, §3

Another assay relates to 1C3 syn 20-2. The format is cell-based, HSV-1. Particulars: for IC50: Human alphaherpesvirus 1; for Relative resistance (RR): IC50 of clone 1C3 syn 20-2 / IC50 of HSV-1 (F). The procedure: as §1, §3
The next assay deals with 1C3 syn 21-2. Type of assay: cell-based, HSV-1. The following applies: for IC50: Human alphaherpesvirus 1, strain 1C3 syn 21-2, read-out: IC50; for Relative resistance (RR): IC50 of clone 1C3 syn 21-2 / IC50 of HSV-1 (F). Here is the method: as §1, §3
The subject of the next assay is 1C3 syn 21-3. The format is cell-based, HSV-1. The following applies: for IC50: Human alphaherpesvirus 1, strain 1C3 syn 21-3, read-out: IC50; for Relative resistance (RR): IC50 of clone 1C3 syn 21-3 / IC50 of HSV-1 (F). The procedure: as §1, §3
In a further assay the test system is 1C3 syn 17-1. The format is cell-based, HSV-1. Particulars: for IC50: Human alphaherpesvirus 1, strain 1C3 syn 17-1, read-out: IC50; for Relative resistance (RR): IC50 of clone 1C3 syn 17-1 / IC50 of HSV-1 (F). Here is the method:
as §1, §3

Values after ≈ are worked out from the molar mass of the structure shown.

As usually defined, the IC50 is the concentration at which inhibition is half-maximal. Turning to `O=c1[nH]c(=O)n([C@H]2C[C@H](O)[C@@H](CO)O2)cc1/C=C/Br` [Brivudin, brivudin], the half-inhibitory concentration (IC50) in the assay with 1C3-syn-14-1 is 0.02 µg/mL (≈ 0.06 µM); with HSV-1 TK^− B2006, more than 0.16 µg/mL; in the assay with HSV-1 (F), 0.01 µg/mL (≈ 0.03 µM); in the assay on 1C3 syn 21-1 it was 0.04 µg/mL (≈ 0.12 µM); with 1C3 syn 20-1, 0.08 µg/mL (≈ 0.24 µM); in the assay with 1C3 syn 20-3 it was 0.06 µg/mL (≈ 0.18 µM). Besides, the IC50 in the assay with 1C3 syn 17-3 was 0.08 µg/mL (≈ 0.24 µM); in the assay with 1C3 syn 17-2, 0.13 µg/mL (≈ 0.39 µM); in the assay with 1C3 syn 20-2, 0.05 µg/mL (≈ 0.15 µM); with 1C3 syn 21-2 it was 0.06 µg/mL (≈ 0.18 µM); in the assay with 1C3 syn 21-3, 0.06 µg/mL (≈ 0.18 µM); with 1C3 syn 17-1, 0.08 µg/mL (≈ 0.24 µM). Moreover, the “Relative resistance (RR)” value with 1C3-syn-14-1 was 2.0; in the assay with HSV-1 TK^− B2006 it was 16.0; in the assay on 1C3 syn 21-1 it was 4.0; in the assay with 1C3 syn 20-1 it was 8.0; in the assay on 1C3 syn 20-3, 6.0; in the assay on 1C3 syn 17-3, 8.0. Besides, the “Relative resistance (RR)” value in the assay with 1C3 syn 17-2 is 13.0; in the assay on 1C3 syn 20-2, 5.6; in the assay on 1C3 syn 21-2, 6.0; with 1C3 syn 21-3, 6.0; in the assay with 1C3 syn 17-1, 8.0. Also, in the assay with 1C3-syn-14-1, the “susceptibility of variant to drug (in words)” value is on record as “rare resistance”.

Regarding `O=C(O)P(=O)(O)O` [Foscarnet, foscarnet], the IC50 with 1C3-syn-14-1 came out at 3.12 µg/mL (≈ 24.8 µM); with HSV-1 TK^− B2006, 35.1 µg/mL (≈ 279 µM); in the assay on HSV-1 (F) it was 6.12 µg/mL (≈ 48.6 µM); in the assay on 1C3 syn 21-1 it was 8.82 µg/mL (≈ 70 µM); in the assay with 1C3 syn 20-1 it was 12.5 µg/mL (≈ 99.2 µM); in the assay with 1C3 syn 20-3, 17.6 µg/mL (≈ 140 µM). For the same molecule, the IC50 with 1C3 syn 17-3 is 17.6 µg/mL (≈ 140 µM); in the assay with 1C3 syn 17-2 it was 12.5 µg/mL (≈ 99.2 µM); in the assay on 1C3 syn 20-2, 12.5 µg/mL (≈ 99.2 µM); with 1C3 syn 21-2, 17.6 µg/mL (≈ 140 µM); with 1C3 syn 21-3 it was 12.5 µg/mL (≈ 99.2 µM); in the assay on 1C3 syn 17-1 it was 17.6 µg/mL (≈ 140 µM). For the same molecule, the “Relative resistance (RR)” value was less than 1.0 with 1C3-syn-14-1; 5.0 in the assay with HSV-1 TK^− B2006; 1.4 in the assay with 1C3 syn 21-1; 2.0 with 1C3 syn 20-1; 2.9 with 1C3 syn 20-3; 2.9 in the assay on 1C3 syn 17-3. Also, the “Relative resistance (RR)” value in the assay with 1C3 syn 17-2 came to 2.0; in the assay with 1C3 syn 20-2 it was 2.0; with 1C3 syn 21-2 it was 2.9; in the assay with 1C3 syn 21-3, 2.0; in the assay with 1C3 syn 17-1, 2.9.

Regarding `Nc1nc2c(ncn2COCCO)c(=O)[nH]1` [Aciclovir, aciclovir], the half-maximal inhibitory concentration (IC50) was 0.1 µg/mL (≈ 0.444 µM) with 1C3-syn-14-1; more than 0.5 µg/mL with HSV-1 TK^− B2006; 0.05 µg/mL (≈ 0.222 µM) in the assay on HSV-1 (F); 0.2 µg/mL (≈ 0.888 µM) with 1C3 syn 21-1; 0.4 µg/mL (≈ 1.78 µM) with 1C3 syn 20-1; 0.2 µg/mL (≈ 0.888 µM) in the assay on 1C3 syn 20-3. Moreover, the IC50 came to 0.2 µg/mL (≈ 0.888 µM) with 1C3 syn 17-3; 0.2 µg/mL (≈ 0.888 µM) in the assay on 1C3 syn 17-2; 0.2 µg/mL (≈ 0.888 µM) in the assay with 1C3 syn 20-2; 0.4 µg/mL (≈ 1.78 µM) in the assay on 1C3 syn 21-2; 0.2 µg/mL (≈ 0.888 µM) in the assay on 1C3 syn 21-3; 0.28 µg/mL (≈ 1.24 µM) in the assay with 1C3 syn 17-1. The “Relative resistance (RR)” value in the assay on 1C3-syn-14-1 is given as 2.0; with HSV-1 TK^− B2006, 10.0; with 1C3 syn 21-1, 4.0; in the assay on 1C3 syn 20-1, 8.0; in the assay on 1C3 syn 20-3 it was 4.0; with 1C3 syn 17-3, 4.0. In addition, the “Relative resistance (RR)” value was 4.0 with 1C3 syn 17-2; 4.0 with 1C3 syn 20-2; 8.0 in the assay with 1C3 syn 21-2; 4.0 in the assay with 1C3 syn 21-3; 5.6 with 1C3 syn 17-1. Further, the “susceptibility of variant to drug (in words)” value in the assay on 1C3-syn-14-1 is on record as “rare resistance”.

Source of the values: patent publication US20100278858A1, “PROCESS FOR PREPARING […] STRAINS” (priority 2007, published 2010).
